Test results taken from patent US9868698B2, “(2S,4R)-5-(5′-chloro-2′-fluorobiphenyl-4-yl)-4-(ethoxyoxalylamino)-2-hydroxymethyl-2-methylpentanoic acid” (THERAVANCE BIOPHARMA R&D IP, LLC, priority 2015, dated 2018).

How the values were obtained:
Rat NEP = target: T1, Rat NEP (Rattus norvegicus, UniProt P07861); experiment: In vitro enzyme inhibition assay, rat NEP (Assay 1); type: biochemical; conditions: NEP from rat kidneys; read-out: rat pKi (converted)
T1 construct: leaving a viscous oily precipitate containing the enriched membrane fraction; from tissue; host or cells: kidneys of adult Sprague Dawley rats (Triton X-114 enriched membrane fraction)
T1 sequence (P07861 1-750): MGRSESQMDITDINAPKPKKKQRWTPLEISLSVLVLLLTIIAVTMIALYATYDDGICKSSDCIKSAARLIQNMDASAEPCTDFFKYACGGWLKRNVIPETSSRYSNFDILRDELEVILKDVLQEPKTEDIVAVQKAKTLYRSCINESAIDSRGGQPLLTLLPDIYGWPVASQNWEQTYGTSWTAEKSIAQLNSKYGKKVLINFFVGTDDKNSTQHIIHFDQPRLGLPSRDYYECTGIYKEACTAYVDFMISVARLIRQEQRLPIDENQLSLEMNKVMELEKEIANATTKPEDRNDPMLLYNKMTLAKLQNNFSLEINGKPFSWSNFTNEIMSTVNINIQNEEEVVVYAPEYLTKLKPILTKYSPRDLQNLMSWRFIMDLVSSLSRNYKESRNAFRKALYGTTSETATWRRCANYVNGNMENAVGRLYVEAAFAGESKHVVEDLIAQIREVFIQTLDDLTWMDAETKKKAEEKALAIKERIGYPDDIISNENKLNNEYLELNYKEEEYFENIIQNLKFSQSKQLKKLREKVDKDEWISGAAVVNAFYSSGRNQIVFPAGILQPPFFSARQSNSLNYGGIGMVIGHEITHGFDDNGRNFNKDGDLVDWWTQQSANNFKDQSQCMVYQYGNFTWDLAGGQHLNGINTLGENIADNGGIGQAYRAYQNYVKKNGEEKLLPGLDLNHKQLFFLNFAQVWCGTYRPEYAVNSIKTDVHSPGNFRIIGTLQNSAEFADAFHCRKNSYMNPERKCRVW
Description: (§1) The inhibitory activities at human and rat neprilysin (EC 3.4.24.11; NEP) were determined using in vitro assays as described below.
Rat NEP was prepared from the kidneys of adult Sprague Dawley rats. Whole kidneys were washed in cold phosphate buffered saline (PBS) and brought up in ice-cold lysis buffer (1% Triton X-114, 150 mM NaCl, 50 mM tris(hydroxymethyl) aminomethane (Tris) pH 7.5; Bordier (1981) J. Biol. Chem. 256: 1604-1607) in a ratio of 5 mL of buffer for every gram of kidney. Samples were homogenized on ice using a polytron hand held tissue grinder. Homogenates were centrifuged at 1000×g in a swinging bucket rotor for 5 minutes at 3° C. The pellet was resuspended in 20 mL of ice cold lysis buffer and incubated on ice for 30 minutes. Samples (15-20 mL) were then layered onto 25 mL of ice-cold cushion buffer (6% w/v sucrose, 50 mM pH 7.5 Tris, 150 mM NaCl, 0.06%, Triton X-114), heated to 37° C. for 3-5 minutes and centrifuged at 1000×g in a swinging bucket rotor at room temperature for 3 minutes. The two upper layers were aspirated off, leaving a viscous oily precipitate containing the enriched membrane fraction. Glycerol was added to a concentration of 50% and samples were stored at −20° C. Protein concentrations were quantitated using a BCA detection system with bovine serum albumin (BSA) as a standard.
(§2) The assays were performed in 384-well white opaque plates at 37° C. using the fluorogenic peptide substrate at a concentration of 10 μM in Assay Buffer (50 mM HEPES, pH 7.5, 100 mM NaCl, 0.01% polyethylene glycol sorbitan monolaurate (Tween-20), 10 μM ZnSO4).
(§3) Test compounds were assayed over the range of concentrations from 10 μM to 20 pM. Test compounds were added to the enzyme and incubated for 30 minute at 37° C. prior to initiating the reaction by the addition of substrate. Reactions were terminated after 20 minutes of incubation at 37° C. by the addition of glacial acetic acid to a final concentration of 3.6% (v/v).
(§4) Plates were read on a fluorometer with excitation and emission wavelengths set to 320 nm and 405 nm, respectively. Inhibition constants were obtained by nonlinear regression of the data using the equation (GraphPad Software, Inc., San Diego, Calif.): v=v0/[1+(I/K′)] where v is the reaction rate, v0 is the uninhibited reaction rate, I is the inhibitor concentration and K′ is the apparent inhibition constant.

[1] = IV/PO pharmacokinetic study in dogs (Assay 3); type: in vivo; conditions: male, beagle, plasma, dog, read-out: AUClast Mean
Description: (§5) Each rat or dog pharmacokinetic study began with formulation of the test compound. Appropriate masses of each test compound were added into a volume of vehicle (e.g. 5% sodium bicarbonate, 5% dextrose in water) such that the final concentration of each compound was appropriate to be dosed at 2 mL/kg. Although a homogenous suspension were acceptable for oral dosing, intravenous dosing solutions were sterile-filtered (0.2 μm) prior to dosing to ensure no particulates were administered.
In the dog study, male beagle dogs (3 per route) housed at Agilux Laboratories (Worcester, Mass.) and weighing between 7-12 kg received either a single oral gavage or a single intravenous (via indwelling catheter) dose of the dosing solution. The final dose was typically 0.1-2 mg/kg. Serial blood samples were harvested via direct venipuncture at 3 minutes, 15 minutes, 30 minutes, 1 hour, 2 hours, 4 hours, 6 hours, 8 hours, 12 hours, and 24 hours post-dose. All samples were collected manually into microtainer tubes containing sodium fluoride, potassium oxalate and paraoxon, and were processed to plasma by refrigerated centrifugation.
(§6) Plasma samples were extracted with 3 volumes of MeCN containing a suitable internal standard. Extracts were reconstituted into 3 volumes of water containing 1% formic acid, and analyzed via HPLC-coupled MS/MS. Plasma concentration-time data were analyzed using the Phoenix software (Pharsight Corp., St. Louis, Mo.) to calculate pharmacokinetic parameters.

[2] = Renal excretion in male beagle dogs (Assay 4); type: in vivo; conditions: dog, IV 1.0 mg/kg
Description: An important factor for insuring appropriate long term drug dosing and correct steady-state drug concentrations in patients is drug clearance. In general, decreased drug clearance results in higher drug concentrations and greater drug effects.
Male beagle dogs (N=3), having body weights of 9.58-10.42 kg, received an IV dose of 1.0 mg/kg of Compound 1. Compound 1 was formulated in 5% NaHCO3 in D5W. The dogs were fasted overnight and pretreated with pentagastrin (60 μg/mL, 0.1 mL/kg, IM) approximately 30 minutes prior to dose administration to stimulate gastric secretion. Food was returned approximately 4 hours postdose. Urine samples were collected surrounded by cold ice packs during the collection period. After 24 hours, the sample weight was recorded, the sample was thoroughly mixed, and aliquots were obtained and frozen (−80° C.) prior to bioanalysis.
Dog urine concentrations of Compound 1 were determined by LC/MS/MS. Urine study samples (diluted in plasma) were vortexed and 50 μL was placed in a 96-well plate. The samples were extracted with acetonitrile with internal standard chrysin. The extract was centrifuged and supernatant was transferred to a new 96-well plate and diluted 1 part sampe in 4 parts water with 0.2% formic acid. Samples (12 μL) were injected on a Waters Acquity UPLC BEH C18 (50×2.1 mm, 1.7 μm) column with a flow rate of 0.9 mL/min. […]

NEP [3] = target: T2, NEP (Homo sapiens, UniProt P08473); experiment: In vitro enzyme inhibition assay, human NEP (Assay 1); type: biochemical; design: purchased R&D Systems 1182-ZN; conditions: read-out: human pKi (converted)
Description: as §1
Target sequence in this assay (P08473 52-750 limits assumed): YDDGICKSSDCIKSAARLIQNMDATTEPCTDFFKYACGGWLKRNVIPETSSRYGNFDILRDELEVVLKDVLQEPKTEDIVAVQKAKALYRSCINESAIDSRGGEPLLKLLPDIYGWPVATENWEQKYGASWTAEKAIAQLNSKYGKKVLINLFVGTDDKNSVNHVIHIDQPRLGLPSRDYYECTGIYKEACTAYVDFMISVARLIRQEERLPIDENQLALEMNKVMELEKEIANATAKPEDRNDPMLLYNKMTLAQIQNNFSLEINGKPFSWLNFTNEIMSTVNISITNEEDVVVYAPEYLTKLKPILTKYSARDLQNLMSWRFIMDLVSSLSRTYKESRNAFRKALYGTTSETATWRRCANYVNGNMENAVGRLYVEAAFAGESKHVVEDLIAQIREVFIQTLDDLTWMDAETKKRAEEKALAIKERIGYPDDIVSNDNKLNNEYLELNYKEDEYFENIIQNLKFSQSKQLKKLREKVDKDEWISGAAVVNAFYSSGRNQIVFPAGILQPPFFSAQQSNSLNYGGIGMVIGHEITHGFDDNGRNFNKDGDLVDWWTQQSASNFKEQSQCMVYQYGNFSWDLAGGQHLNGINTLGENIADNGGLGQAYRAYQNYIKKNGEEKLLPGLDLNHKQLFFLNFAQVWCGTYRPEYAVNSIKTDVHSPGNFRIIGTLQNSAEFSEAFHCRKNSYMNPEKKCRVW
Recombinant human NEP was obtained commercially (R&D Systems, Minneapolis, Minn., catalog number 1182-ZN). The fluorogenic peptide substrate Mca-D-Arg-Arg-Leu-Dap-(Dnp)-OH (Medeiros et al. (1997) Braz. J. Med. Biol. Res. 30:1157-62; Anaspec, San Jose, Calif.) was used.
as §2, §3, §4

[4] = IV/PO pharmacokinetic study in rats (Assay 3); type: in vivo; conditions: male, Sprague-Dawley, plasma; rat, IV; analyte = compound dosed (active metabolite); read-out: AUClast Mean
Description: as §5
In the rat study, pre-cannulated male Sprague-Dawley rats (3 per route) between 8 and 10 weeks of age were obtained from Harlan Laboratories (Indianapolis, Ind.). Rats received either a single oral gavage or a single intravenous (via lateral tail vein) dose of the dosing solution. The final dose was typically 0.5-3 mg/kg. Serial blood samples were harvested via the cannula implanted in the jugular vein at 3 minutes, 15 minutes, 30 minutes, 1 hour, 2 hours, 4 hours, 6 hours, and 24 hours post-dose. Sampling was performed either manually or using automated blood samplers. Samples were collected into microtainer tubes containing sodium fluoride, potassium oxalate and paraoxon, and were processed to plasma by refrigerated centrifugation.
as §6

NEP [5] = target: T2, NEP; conditions: reported in U.S. Patent Application Publication No. 2013/0109639; cited from earlier work
Target sequence in this assay (P08473 whole entry): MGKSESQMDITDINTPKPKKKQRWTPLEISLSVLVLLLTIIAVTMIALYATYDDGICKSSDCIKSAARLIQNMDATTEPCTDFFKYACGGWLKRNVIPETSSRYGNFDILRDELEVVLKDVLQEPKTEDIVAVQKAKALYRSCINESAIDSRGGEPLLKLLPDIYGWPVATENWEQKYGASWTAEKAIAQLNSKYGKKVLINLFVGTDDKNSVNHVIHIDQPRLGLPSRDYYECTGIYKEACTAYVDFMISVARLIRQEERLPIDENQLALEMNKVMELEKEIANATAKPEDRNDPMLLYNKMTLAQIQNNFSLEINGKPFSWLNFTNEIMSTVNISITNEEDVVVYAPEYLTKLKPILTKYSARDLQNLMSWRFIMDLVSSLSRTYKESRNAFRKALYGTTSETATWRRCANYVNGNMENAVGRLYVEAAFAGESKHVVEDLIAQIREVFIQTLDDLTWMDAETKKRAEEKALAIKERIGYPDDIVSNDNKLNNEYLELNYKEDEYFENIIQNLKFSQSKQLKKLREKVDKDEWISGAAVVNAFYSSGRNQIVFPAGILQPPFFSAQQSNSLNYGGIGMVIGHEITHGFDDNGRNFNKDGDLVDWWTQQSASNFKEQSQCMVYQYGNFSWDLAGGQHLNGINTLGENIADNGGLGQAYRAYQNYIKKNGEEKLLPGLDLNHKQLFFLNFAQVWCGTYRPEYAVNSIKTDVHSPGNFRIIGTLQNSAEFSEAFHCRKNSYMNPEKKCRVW

[6] = Exposure of crystals to ambient conditions; type: physicochemical

AUC(0-t) [4] [ng·h/mL] | AUC(0-t) ([1]; IV, analyte = compound dosed (active metabolite)) [ng·h/mL] | Compound | Ki (Rat NEP) [nM] | AUC(0-t) ([1]; PO, analyte = compound dosed (prodrug)) [ng·h/mL] | Amount of Compound 1 Excreted in Urine over Collection Period (0-24 hrs) Mean [2] [µg] | Urinary Excretion (approximate % of administred dose excreted in urine) Mean ([2]; 0-24 hrs, 1 mg/kg) [%] | Ki (NEP [3]) [nM] | pKi at NEP (NEP [5]) | behaviour of crystals at ambient conditions (in words) [6]
– | – | CCOC(=O)C(=O)N[C@H](Cc1ccc(-c2cc(Cl)ccc2F)cc1)C[C@@](C)(CO)C(=O)O [Compound 1, (2S,4R)-5-(5′-Chloro-2′-fluorobiphenyl-4-yl)-4-(ethoxyoxalylamino)-2-hydroxymethyl-2-methylpentanoic Acid] | 0.794 | 3.7 | 28.9 | 0.284 | 0.794 | – | –
16000 | 1970 | C[C@@](CO)(C[C@@H](Cc1ccc(-c2cc(Cl)ccc2F)cc1)NC(=O)C(=O)O)C(=O)O [Comparison Compound C2, (2S,4R)-5-(5′-Chloro-2′-fluorobiphenyl-4-yl)-2-hydroxymethyl-2-methyl-4-(oxalylamino)pentanoic Acid] | 0.316 | – | – | – | 0.631 | ≥ 9 | –
– | – | CCOC(=O)C(=O)N[C@H](Cc1ccc(-c2cc(Cl)ccc2F)cc1)C[C@@](C)(CO)C(=O)O [Compound 1″, L-Arginine (2S,4R)-5-(5′-Chloro-2′-fluoro-[1,1′-bipheny]-4-yl)-4-(2-ethoxy-2-oxoacetamido)-2-(hydroxymethyl)-2-methylpentanoate] | – | – | – | – | – | – | slow deliquescence
